Measured values published in ChEMBL document CHEMBL4507266, “Data for DCP probe BAY-784” (2021).

Tests used:
[1] = molecular target: Melanocortin receptor 5 (Homo sapiens) (UniProt P33032); test: Inhibition of Melanocortin MC5 at 10 µM in the Eurofins-Panlabs radioligand binding assay (Eurofins_assay_251400); design: ligand concentration 0.035 nM; settings: Compound concentration 10.0 uM
[2] = molecular target: Sodium-dependent dopamine transporter (Homo sapiens) (UniProt Q01959); settings: Compound concentration 10.0 uM
Chain of Sodium-dependent dopamine transporter (Homo sapiens) (Q01959 whole entry): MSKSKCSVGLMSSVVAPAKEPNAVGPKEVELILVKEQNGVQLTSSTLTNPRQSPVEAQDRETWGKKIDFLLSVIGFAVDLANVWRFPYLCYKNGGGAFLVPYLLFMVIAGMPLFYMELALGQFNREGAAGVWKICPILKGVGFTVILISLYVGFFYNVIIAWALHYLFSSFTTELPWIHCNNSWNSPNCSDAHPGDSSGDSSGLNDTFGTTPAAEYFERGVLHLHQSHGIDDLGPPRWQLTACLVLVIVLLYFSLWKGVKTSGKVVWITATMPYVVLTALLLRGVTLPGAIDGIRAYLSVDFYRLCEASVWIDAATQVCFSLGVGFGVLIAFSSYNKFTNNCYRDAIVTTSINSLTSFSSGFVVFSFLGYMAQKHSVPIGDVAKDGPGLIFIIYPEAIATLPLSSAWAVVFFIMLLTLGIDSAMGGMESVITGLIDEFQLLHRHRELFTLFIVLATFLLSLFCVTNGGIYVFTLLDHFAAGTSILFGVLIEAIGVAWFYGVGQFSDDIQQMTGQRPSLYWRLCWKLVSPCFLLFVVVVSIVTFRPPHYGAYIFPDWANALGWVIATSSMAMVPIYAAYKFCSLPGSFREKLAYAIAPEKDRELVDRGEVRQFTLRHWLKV

[3] = molecular target: T1, D(4) dopamine receptor (Homo sapiens) (UniProt P21917); test: Inhibition of Dopamine D4.2 at 10 µM in the Eurofins-Panlabs radioligand binding assay (Eurofins_assay_219900); design: ligand concentration 0.5 nM; settings: Compound concentration 10.0 uM
T1 sequence (whole entry): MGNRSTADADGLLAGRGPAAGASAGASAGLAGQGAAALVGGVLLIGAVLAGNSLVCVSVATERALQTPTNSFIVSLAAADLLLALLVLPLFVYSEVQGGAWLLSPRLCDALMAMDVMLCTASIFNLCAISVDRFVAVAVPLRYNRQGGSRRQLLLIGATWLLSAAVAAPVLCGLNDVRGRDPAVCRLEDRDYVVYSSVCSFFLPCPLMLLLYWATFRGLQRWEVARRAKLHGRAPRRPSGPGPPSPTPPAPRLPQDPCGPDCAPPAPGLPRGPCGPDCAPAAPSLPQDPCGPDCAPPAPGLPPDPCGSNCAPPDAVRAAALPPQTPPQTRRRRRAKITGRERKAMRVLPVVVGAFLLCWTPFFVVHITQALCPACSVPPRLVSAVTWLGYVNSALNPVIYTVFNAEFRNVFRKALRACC

[4] = molecular target: T2, Muscarinic acetylcholine receptor M5 (Homo sapiens) (UniProt P08912); test: Inhibition of Muscarinic M5 at 10 µM in the Eurofins-Panlabs radioligand binding assay (Eurofins_assay_253010); design: ligand concentration 0.8 nM; settings: Compound concentration 10.0 uM
T2 sequence (whole entry): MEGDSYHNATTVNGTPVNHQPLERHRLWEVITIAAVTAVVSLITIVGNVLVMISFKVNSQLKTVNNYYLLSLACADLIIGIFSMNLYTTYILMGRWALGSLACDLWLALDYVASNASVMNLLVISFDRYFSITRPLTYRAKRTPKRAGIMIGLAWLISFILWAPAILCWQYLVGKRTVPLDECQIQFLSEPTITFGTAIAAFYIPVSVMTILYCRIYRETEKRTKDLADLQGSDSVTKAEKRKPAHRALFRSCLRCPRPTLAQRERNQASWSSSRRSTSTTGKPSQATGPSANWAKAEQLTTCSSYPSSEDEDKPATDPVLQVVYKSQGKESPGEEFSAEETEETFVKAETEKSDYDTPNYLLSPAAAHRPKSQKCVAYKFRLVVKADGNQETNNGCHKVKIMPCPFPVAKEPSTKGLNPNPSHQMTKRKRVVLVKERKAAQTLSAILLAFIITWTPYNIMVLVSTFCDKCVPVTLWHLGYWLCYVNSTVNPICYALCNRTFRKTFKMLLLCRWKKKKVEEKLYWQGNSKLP

[5] = molecular target: Epidermal growth factor receptor (Homo sapiens) (UniProt P00533); test: Inhibition of Protein Tyrosine Kinase, EGF Receptor at 10 µM in the Eurofins-Panlabs enzyme assay (Eurofins_assay_170020); design: substrate with concentration; settings: Compound concentration […]
Chain of Epidermal growth factor receptor (Homo sapiens) (P00533 whole entry): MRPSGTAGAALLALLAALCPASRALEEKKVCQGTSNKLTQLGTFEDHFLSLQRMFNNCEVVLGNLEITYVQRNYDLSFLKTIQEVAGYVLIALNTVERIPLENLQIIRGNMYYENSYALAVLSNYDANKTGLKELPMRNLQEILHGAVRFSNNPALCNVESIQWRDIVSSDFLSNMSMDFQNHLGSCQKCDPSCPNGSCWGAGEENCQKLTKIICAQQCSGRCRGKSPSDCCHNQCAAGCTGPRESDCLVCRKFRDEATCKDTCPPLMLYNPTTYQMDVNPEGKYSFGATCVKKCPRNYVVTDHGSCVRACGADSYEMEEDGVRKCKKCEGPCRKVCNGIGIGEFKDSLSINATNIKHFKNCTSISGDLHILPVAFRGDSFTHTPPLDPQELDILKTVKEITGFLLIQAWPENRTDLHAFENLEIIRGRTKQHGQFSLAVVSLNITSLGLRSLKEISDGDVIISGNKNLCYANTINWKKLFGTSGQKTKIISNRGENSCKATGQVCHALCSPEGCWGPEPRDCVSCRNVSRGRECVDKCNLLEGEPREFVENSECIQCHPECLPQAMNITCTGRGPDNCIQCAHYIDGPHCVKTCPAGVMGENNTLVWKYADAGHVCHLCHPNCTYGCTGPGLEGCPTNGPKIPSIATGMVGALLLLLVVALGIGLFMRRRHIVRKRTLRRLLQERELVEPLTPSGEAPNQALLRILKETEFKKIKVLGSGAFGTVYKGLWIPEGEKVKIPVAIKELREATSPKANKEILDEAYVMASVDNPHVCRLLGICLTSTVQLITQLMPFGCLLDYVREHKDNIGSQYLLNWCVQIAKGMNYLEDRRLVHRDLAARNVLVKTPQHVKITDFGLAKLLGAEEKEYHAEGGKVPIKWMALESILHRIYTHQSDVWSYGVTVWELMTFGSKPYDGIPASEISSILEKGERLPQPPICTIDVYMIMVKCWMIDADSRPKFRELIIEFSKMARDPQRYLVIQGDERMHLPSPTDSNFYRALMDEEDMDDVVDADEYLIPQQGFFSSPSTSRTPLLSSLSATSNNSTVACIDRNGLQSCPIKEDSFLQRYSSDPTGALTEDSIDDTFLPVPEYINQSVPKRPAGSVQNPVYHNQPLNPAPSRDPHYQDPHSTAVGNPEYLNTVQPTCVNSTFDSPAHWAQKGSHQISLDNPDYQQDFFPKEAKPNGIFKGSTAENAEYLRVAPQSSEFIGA

[6] = molecular target: Histamine H2 receptor (Homo sapiens) (UniProt P25021); settings: Compound concentration 10.0 uM
Chain of Histamine H2 receptor (Homo sapiens) (P25021 whole entry): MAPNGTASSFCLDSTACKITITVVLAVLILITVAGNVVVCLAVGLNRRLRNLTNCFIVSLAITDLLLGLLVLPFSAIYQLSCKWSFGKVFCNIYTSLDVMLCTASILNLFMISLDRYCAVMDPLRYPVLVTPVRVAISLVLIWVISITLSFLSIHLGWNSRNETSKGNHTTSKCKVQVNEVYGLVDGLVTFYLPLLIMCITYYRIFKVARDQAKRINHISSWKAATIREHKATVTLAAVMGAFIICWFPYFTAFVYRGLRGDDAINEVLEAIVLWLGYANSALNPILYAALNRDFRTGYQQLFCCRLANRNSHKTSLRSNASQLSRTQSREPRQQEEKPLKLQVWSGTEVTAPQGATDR

[7] = molecular target: Insulin receptor (Homo sapiens) (UniProt P06213); settings: Rattus norvegicus; Compound concentration 10.0 uM
Chain of Insulin receptor (Homo sapiens) (P06213 28-758 limits assumed): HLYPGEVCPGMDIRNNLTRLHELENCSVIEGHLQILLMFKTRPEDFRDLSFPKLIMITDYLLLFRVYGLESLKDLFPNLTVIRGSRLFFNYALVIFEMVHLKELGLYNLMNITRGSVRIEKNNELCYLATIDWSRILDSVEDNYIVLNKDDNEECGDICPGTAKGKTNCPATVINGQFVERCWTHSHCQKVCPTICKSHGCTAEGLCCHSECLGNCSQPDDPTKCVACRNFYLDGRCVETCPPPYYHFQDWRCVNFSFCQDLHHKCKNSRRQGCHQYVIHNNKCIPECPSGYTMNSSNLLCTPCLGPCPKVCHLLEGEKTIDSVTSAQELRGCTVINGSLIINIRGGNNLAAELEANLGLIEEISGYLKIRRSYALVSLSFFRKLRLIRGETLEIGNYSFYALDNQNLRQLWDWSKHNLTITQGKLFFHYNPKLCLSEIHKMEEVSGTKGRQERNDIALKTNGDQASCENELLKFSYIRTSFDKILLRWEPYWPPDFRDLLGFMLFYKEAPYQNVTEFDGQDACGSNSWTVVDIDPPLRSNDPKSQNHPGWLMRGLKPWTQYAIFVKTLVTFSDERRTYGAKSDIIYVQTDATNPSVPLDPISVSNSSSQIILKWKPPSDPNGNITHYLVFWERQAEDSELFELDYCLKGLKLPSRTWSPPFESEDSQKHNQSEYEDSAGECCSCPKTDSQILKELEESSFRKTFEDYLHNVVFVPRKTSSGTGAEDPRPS
Chain of Insulin receptor (Homo sapiens) (P06213 763-1382 limits assumed): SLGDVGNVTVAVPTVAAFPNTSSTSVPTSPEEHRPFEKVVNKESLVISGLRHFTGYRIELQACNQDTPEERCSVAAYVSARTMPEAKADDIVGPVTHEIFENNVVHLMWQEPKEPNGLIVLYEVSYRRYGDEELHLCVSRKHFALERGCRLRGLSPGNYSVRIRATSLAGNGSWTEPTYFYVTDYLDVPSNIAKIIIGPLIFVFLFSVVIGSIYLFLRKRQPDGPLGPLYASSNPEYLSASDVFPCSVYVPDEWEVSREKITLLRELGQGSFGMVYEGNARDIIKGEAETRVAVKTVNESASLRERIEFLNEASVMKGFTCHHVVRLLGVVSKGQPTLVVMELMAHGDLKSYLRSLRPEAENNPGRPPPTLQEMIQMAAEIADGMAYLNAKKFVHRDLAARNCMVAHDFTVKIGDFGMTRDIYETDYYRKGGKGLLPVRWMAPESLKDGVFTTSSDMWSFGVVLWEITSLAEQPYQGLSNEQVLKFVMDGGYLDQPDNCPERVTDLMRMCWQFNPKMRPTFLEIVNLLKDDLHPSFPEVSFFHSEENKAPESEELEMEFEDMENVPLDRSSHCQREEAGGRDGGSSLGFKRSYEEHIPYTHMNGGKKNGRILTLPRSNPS

CYP1A2 = CYP1A2 (Homo sapiens, UniProt P05177); test: CYP450, 1A2 Eurofins-Panlabs enzyme assay; settings: compound concentration 10 uM
[8] = molecular target: T3, 5-hydroxytryptamine receptor 2C (Homo sapiens) (UniProt P28335); settings: Compound concentration 10.0 uM
T3 sequence (whole entry): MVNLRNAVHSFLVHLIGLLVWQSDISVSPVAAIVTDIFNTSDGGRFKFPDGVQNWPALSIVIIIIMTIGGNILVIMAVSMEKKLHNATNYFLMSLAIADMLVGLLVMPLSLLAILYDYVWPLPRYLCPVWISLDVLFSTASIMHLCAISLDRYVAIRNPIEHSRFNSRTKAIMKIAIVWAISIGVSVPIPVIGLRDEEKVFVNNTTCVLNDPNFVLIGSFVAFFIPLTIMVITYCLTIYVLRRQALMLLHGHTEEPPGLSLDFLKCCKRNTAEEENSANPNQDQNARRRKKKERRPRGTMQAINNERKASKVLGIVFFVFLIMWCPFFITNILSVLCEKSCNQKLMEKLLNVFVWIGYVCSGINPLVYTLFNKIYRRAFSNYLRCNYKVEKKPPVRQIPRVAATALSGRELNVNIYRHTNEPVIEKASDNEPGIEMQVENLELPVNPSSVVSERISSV

Sus scrofa = species: Sus scrofa; test: Inhibition of ATPase, Na+/K+, Heart at compound concentration of 10.0 uM in the Eurofins-Panlabs enzyme assay (Eurofins_assay_107710); design: substrate with concentration; settings: Compound concentration 10.0 uM
[9] = molecular target: Mitogen-activated protein kinase 3 (Homo sapiens) (UniProt P27361); test: Inhibition of Protein Serine/Threonine Kinase, MAPK3 (ERK1) at 10 µM in the Eurofins-Panlabs enzyme assay (Eurofins_assay_171000); settings: Compound concentration 10.0 uM
Chain of Mitogen-activated protein kinase 3 (Homo sapiens) (P27361 whole entry): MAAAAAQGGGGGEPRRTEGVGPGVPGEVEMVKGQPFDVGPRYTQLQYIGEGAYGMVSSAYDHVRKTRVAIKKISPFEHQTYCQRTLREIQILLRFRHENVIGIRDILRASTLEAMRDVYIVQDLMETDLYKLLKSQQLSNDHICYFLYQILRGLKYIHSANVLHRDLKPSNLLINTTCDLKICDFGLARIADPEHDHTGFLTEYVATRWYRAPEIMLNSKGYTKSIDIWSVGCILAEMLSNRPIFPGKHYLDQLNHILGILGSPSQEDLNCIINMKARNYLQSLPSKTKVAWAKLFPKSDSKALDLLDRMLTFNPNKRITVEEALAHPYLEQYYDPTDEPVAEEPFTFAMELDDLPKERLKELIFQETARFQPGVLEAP

[10] = molecular target: T4, Alpha-1D adrenergic receptor (Homo sapiens) (UniProt P25100); test: Inhibition of Adrenergic alpha1D at 10 µM in the Eurofins-Panlabs radioligand binding assay (Eurofins_assay_203400); settings: Compound concentration 10.0 uM
T4 sequence (whole entry): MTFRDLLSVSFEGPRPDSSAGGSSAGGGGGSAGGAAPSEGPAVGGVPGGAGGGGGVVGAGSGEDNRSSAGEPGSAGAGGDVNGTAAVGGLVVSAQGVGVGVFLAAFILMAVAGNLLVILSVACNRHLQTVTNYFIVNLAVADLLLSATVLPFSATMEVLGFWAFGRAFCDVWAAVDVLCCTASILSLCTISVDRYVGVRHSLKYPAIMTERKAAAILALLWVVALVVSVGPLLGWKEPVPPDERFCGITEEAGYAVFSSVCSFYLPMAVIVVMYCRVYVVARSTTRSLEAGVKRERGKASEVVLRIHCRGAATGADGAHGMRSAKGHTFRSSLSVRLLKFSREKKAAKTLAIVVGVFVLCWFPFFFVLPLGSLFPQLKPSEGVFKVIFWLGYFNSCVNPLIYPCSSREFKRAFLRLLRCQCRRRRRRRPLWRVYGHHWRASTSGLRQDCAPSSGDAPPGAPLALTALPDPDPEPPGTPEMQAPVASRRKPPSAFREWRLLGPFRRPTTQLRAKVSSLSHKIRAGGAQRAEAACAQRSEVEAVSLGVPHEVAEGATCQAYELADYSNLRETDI

[11] = molecular target: Monoamine oxidase A (MAO-A) (Homo sapiens, UniProt P21397); test: Inhibition of Monoamine Oxidase MAO-A at compound concentration of 10.0 uM in the Eurofins-Panlabs enzyme assay (Eurofins_assay_140010); design: substrate with concentration 50 uM Kynuramine, incubation time 60 min, incubation temperature 37 C; settings: recombinant human MAO-A expressed in insect Hi5 cells, probe Kynuramine, 50 uM, compound concentration 10 uM
Chain of Monoamine oxidase A (MAO-A) (P21397 whole entry): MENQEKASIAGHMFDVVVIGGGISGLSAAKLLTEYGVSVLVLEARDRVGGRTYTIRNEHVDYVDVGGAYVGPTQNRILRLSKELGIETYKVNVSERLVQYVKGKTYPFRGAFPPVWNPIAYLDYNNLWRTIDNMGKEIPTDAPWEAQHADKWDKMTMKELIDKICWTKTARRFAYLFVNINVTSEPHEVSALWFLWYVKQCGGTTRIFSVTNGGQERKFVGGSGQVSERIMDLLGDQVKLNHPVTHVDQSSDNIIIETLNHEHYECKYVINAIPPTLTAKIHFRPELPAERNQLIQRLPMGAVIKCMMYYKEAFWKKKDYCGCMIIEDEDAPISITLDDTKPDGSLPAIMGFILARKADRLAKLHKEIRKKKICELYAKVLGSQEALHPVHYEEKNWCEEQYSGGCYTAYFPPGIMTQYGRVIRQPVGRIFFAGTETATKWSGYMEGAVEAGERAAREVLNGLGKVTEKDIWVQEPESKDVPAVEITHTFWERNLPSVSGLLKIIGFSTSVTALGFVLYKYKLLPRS

[12] = molecular target: Phosphodiesterase 3 (Homo sapiens) (UniProt Q14432+Q13370); test: Inhibition of Phosphodiesterase PDE3 at compound concentration of 10.0 uM in the Eurofins-Panlabs enzyme assay (Eurofins_assay_152000); assay type: protein assay; design: substrate with concentration 1.01 uM [3H] cAMP + cAMP, incubation time 20 min, incubation temperature 25 C; settings: Compound concentration 10.0 uM

Chain of Melanocortin receptor 5 (Homo sapiens) (P33032 whole entry): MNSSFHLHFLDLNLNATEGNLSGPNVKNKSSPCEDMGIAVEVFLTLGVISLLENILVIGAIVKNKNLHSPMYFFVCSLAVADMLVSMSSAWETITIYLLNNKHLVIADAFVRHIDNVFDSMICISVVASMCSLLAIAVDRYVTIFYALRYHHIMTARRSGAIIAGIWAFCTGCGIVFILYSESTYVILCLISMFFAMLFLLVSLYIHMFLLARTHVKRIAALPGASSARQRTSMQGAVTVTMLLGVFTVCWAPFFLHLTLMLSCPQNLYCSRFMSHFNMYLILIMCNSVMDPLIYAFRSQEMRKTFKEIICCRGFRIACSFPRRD

O=C(NCc1ncc(C(F)(F)F)cc1Cl)c1ccc2c(c1)C1(CCS(=O)(=O)CC1)[C@H](C1CC1)N2S(=O)(=O)c1ccc(F)cc1 [BAY-784]
inhibition [1]: 27%
inhibition [2]: 25%
inhibition [3]: 11%
inhibition [4]: 0%
inhibition [5]: -8%
inhibition [6]: 1%
inhibition [7]: -1%
inhibition at 10 µM (CYP1A2): -2% (not active)
inhibition [8]: 9%
inhibition (Sus scrofa): 0%
inhibition [9]: 87%
inhibition [10]: 18%
inhibition at 60 min, 10 µM [11]: 3% (not active)
inhibition [12]: 9%
